Measurements: ChEMBL document CHEMBL1153649, “Peptidyl epoxides as inhibitors of -chymotrypsin: Remarkable change from irreversible to reversible competitive inhibitor as a consequence of the improvement of binding affinity” (Bioorg Med Chem Lett, 1996)
pKi: −log10 of the molar value.

How the values were obtained:
[1] = biological target: T1, Chymotrypsinogen B (Homo sapiens, UniProt P17538); assay: Compound was tested for inhibitory activity against alpha-chymotrypsin
[2] = biological target: T1, Chymotrypsinogen B; assay: Inhibitory potency was evaluated against alpha-chymotrypsin

T1 sequence (P17538 34-164 limits assumed, other chains not shown): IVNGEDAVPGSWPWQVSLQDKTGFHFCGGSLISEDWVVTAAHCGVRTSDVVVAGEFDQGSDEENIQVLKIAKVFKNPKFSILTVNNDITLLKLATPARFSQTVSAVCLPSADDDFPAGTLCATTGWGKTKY
T1 sequence (P17538 167-263 limits assumed, other chains not shown): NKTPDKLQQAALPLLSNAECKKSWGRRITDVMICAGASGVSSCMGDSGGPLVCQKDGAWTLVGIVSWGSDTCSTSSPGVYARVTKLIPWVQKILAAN

| pKi [1] | K inact/Ki [2] | Structure (SMILES) |
| --- | --- | --- |
| 3.09 | – | O=C(N[C@@H](Cc1ccccc1)[C@@H]1CO1)C1CCCN1C(=O)c1ccccc1 (single isomer, unassigned) |
| – | 27 M⁻¹ s⁻¹ | COC(=O)[C@@H](Cc1ccccc1)[C@@H]1CO1 (single isomer, unassigned) |
